The values below come from ChEMBL document CHEMBL3286103.

The assay concerns the target T1, Vitamin D3 receptor A (Danio rerio) (UniProt Q9PTN2).
T1 sequence (whole entry): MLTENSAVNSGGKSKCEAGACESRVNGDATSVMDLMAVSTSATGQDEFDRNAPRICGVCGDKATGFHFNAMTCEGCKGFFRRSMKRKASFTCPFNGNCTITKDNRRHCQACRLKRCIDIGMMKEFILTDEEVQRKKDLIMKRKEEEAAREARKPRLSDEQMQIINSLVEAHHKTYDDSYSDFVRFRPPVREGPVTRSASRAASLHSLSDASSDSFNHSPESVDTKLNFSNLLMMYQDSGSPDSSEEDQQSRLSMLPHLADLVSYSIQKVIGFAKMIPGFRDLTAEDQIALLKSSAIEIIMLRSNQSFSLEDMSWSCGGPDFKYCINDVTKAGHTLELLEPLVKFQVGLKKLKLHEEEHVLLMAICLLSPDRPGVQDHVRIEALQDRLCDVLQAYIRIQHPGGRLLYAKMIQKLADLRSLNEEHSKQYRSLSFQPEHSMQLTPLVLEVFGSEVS
The assay is described as follows: Binding affinity to N-terminal His-tagged zebrafish VDR LBD (154 to 456) at 10 to 20-fold molar excess by ESI-MS analysis.

Calls of active or inactive are those of the source. No cut-off for these calls is given here.

For `C[C@H](CCC(=O)O)[C@H]1CC[C@H]2[C@@H]3CC[C@@H]4C[C@H](O)CC[C@]4(C)[C@H]3CC[C@]12C`, the outcome was Active.
